Measured values: patent US8048918B2, “Treatment of hyperproliferative diseases” (Vampex Limited, priority 2000, dated 2011)
Where no end group is shown, it is not given here.

Tests used:
[1] = tested on: normal human epidermal keratinocytes; assay: proliferation assay on normal human epidermal keratinocytes; format: cell-based
Protocol: Pieces of skin are washed thoroughly for 30 minutes in Betadine solution (10% iodine) followed by 2×10 minute washes in PBS. After removal of the subcutaneous tissue and dermis with a scalpel the skin is dissected into 5×10 mm pieces. The skin pieces are rinsed 5× in PBS followed by incubating in Dispase (grade 11, 2.4 U/ml, Boehringer Mannheim) for 18 hours at4° C.
The skin pieces are then placed dermis side down in 100 mm Petri dishes and are irrigated with 5 ml KSFM. The epidermis is peeled off with forceps and incubated in 10 ml 1× Trypsin/EDTA solution for 10 minutes at 37° C. followed by addition of 10 ml KSFM. The sample is mechanically agitated by aspiration and ejection from a transfer pipette. The resulting cell suspension is sieved using a cell strainer (Becton Dickinson) rinsing through with KSFM. The isolated epidermal cells are then washed twice in KSFM by centrifugation at 100 g for 10 min. Cells are seeded as below.
(§1) Primary cultures were seeded at 3500 cells/cm^2 in K-SFM 25 cm^2 tissue culture flasks. The medium was changed (5 ml per flask) the day after seeding and every other day thereafter. At 70-80% confluence the cells were subcultured by seeding 3500 cells/cm^2 in new 25 cm^2 flasks. On the day that the subcultures reached confluence the medium was switched to medium containing the experimental treatments.
(§2) The cells were cultured for 4 days, replacing the experimental medium every other day, before harvesting the cells.
Cell Seeding and Analysis: Purchased secondary cultures or primary cultures (from donor skin) are seeded at 3500 cells/cm^2 in K-SFM 25 cm^2 tissue culture flasks. The medium is changed (5 ml per flask) the day after seeding and every other day thereafter. […]
The medium is replaced every other day. […] The cell suspension is added to 20 ml Isoton solution in a Coulter counter “Accuvette” and the cells are counted. On each harvest, 3 wells of cells are counted for each treatment and 3 counts were made for each well.
Cell number is calculated as follows: Coulter Counter removes 500 μl of 20 ml sample ( 1/40). […]

[2] = tested on: normal human epidermal keratinocytes; assay: differentiation assay (K1/K10) on normal human epidermal keratinocytes; format: cell-based; conditions: for differentiation: Carbenoxolone 6 μM, Disulfiram 15 μM or Citral 10 μM, 1.2 mM calcium, FIG. 11
Protocol: as §1, §2
RNA extraction is carried out according to the manufacturers instructions using the RNeasy kit (QIAGEN). 20 μg of RNA for each treatment was separated on a 1.2% agarose (1.8% formaldehyde) gel and transferred onto a nylon membrane (Zeta probe GT membranes, BioRad) by capillary transfer. The RNA is fixed to the membrane by UV crosslinking. DNA probes for the differentiation markers K1 and K10(50 ng) are labelled with [α-^32P] dCTP using the Prime-It RmT Primer labeling kit (Stratagene) following the manufacturer's instructions. Unincorporated nucleotides are removed by elution through a Microspin G25 column (Pharmacia Biotech). The blots are wetted in 0.25M sodium phosphate (pH 7.2)/7% SDS for 30 minutes at 65° C. Fresh hybridisation solution is added along with the radiolabelled probe and the blot is hybridised overnight at 65° C.
The blot is washed for 2×5 minutes in 0.25M sodium phosphate (pH 7.2), 7% SDS and then for 2×5 minutes in 20 mM sodium phosphate (pH 7.2), 5% SDS at 65° C. The wash steps are repeated until a clear distinction can be made between the signal and non-specific background. The blot is exposed to x-ray film for 24 hours before developing.
Synthesis of mRNA for the K1 and K10 keratin (markers for commitment to terminal differentiation) is examined by quantitative reverse transcription PCR (RT-PCR). Synthesis of mRNA for Cyclin D (a marker for cell proliferation) is also assayed by RT-PCR. […] The RNA is blotted onto a nylon membrane by capillary transfer and expression of K1 mRNA is determined by Northern hybridisation with a radiolabelled DNA probe. […]

[3] = Carbenoxolone 6 μM, Disulfiram 15 μM or Citral 10 μM

Row | Compound | proliferation ([1]; peptide 6 μM, RBP 0.6 μM, Ca 1.2 mM) | differentiation (expression of K1 and K10 markers) ([2]; peptide 6 μM, RBP 0.6 μM, Ca 1.2 mM, FIG. 6) | proliferation [1, 3] | differentiation [2]
1 | GRVRLLNNWDVCA | reduces proliferation | enhances the expression of K1 and K10 markers |  | 
2 | CC(C)=CCCC(C)=CC=O [Citral, 3,7-dimethyl-2,6-octadienal] |  |  | inhibit proliferation | increase differentiation
3 | CC1(C)[C@@H](OC(=O)CCC(=O)O)CC[C@]2(C)[C@H]3C(=O)C=C4[C@@H]5C[C@@](C)(C(=O)O)CC[C@]5(C)CC[C@@]4(C)[C@]3(C)CC[C@@H]12 [Carbenoxolone] |  |  | inhibit proliferation | increase differentiation
